Laboratory results from ChEMBL document CHEMBL3045807, “Synthesis of novel pyrazolyl tetrazoles as selective COX-2 inhibitors” (Med Chem Res, 2013).

How the values were obtained:
Rattus norvegicus [1] = assay: Ulcerogenic activity against fasted albino Rattus norvegicus (rat) assessed as ulcer index at 100 mg/kg, po administered QD for 3 days measured on day 4; type: toxicity, organism-based; set-up: dose 100 mg/kg, route oral; details: in vivo, 72 h
Ovis aries = organism: Ovis aries; assay: Selectivity ratio of IC50 for Ovis aries (sheep) COX2 to IC50 for ovine COX1
Rattus norvegicus [2] = assay: Ulcerogenic activity against fasted albino Rattus norvegicus (rat) assessed as ulcer index at 50 mg/kg, po administered QD for 3 days measured on day 4; type: toxicity, organism-based; set-up: dose 50 mg/kg, route oral; details: in vivo, 72 h
Rattus norvegicus [3] = assay: Anti-inflammatory activity in albino Rattus norvegicus (rat) assessed as carrageenan-induced paw edema volume at 20 mg/kg, po administered 1 hr prior to carrageenan-challenge measured at 0.5 hr (reference value: 2.5 +/- 0.02 ml); type: functional
Rattus norvegicus [4] = assay: Anti-inflammatory activity in albino Rattus norvegicus (rat) assessed as inhibition of carrageenan-induced paw edema at 20 mg/kg, po administered 1 hr prior to carrageenan-challenge measured at 3 hr relative to control; type: functional
Rattus norvegicus [5] = assay: Anti-inflammatory activity in albino Rattus norvegicus (rat) assessed as carrageenan-induced paw edema volume at 20 mg/kg, po administered 1 hr prior to carrageenan-challenge measured at 1 hr (reference value: 3.75 +/- 0.01 ml); type: functional
Rattus norvegicus [6] = assay: Anti-inflammatory activity in albino Rattus norvegicus (rat) assessed as carrageenan-induced paw edema volume at 20 mg/kg, po administered 1 hr prior to carrageenan-challenge measured at 2 hr (reference value: 4.25 +/- 0.07 ml); type: functional

Clc1ccc(-c2nn(-c3ccccc3)cc2-c2nn[nH]n2)cc1 was tested, and the UI (Rattus norvegicus [1]) was 13.9.

Cc1ccc(-c2cc(C(F)(F)F)nn2-c2ccc(S(N)(=O)=O)cc2)cc1 [CELECOXIB] was tested, and the Ratio IC50 (Ovis aries) was 0.02 and the UI (Rattus norvegicus [2]) was 12.51.

O=C([O-])Cc1ccccc1Nc1c(Cl)cccc1Cl.[Na+] [DICLOFENAC SODIUM] gave an Activity (Rattus norvegicus [3]) of 1.67 mL, an inhibition in vivo at 20 mg/kg (Rattus norvegicus [4]) of 88% and an Activity (Rattus norvegicus [5]) of 1.15 mL. The UI (Rattus norvegicus [2]) was 17.02 and the Activity (Rattus norvegicus [6]) was 0.25 mL.

In the case of COc1ccc(-c2nn(-c3ccccc3)cc2-c2nn[nH]n2)cc1, the UI (Rattus norvegicus [1]) is reported as 14.22.
